Assays:
lipoamide = compound: NC(=O)CCCCC1CCSS1 [lipoamide]; assay: thermal stability z-score vs DMSO; higher = more thermally stabilized by treatment; details: HeLa, lipoamide concentration 100 µM
Procedure: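 Cellular thermal proteome profiling in HeLa cells. Cells were treated with 100 µM lipoamide for 1 h, with or without 1 mM arsenate for a further 1 h, then heated to ten temperatures (37-66.3 °C), and soluble protein was quantified by TMT mass spectrometry relative to 0.1% DMSO controls. The thermal stability score (sum of log2 fold changes minus the abundance score) was transformed to a z-score; mean of n = 3 experiments.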

potassium arsenate = compound: O=[As]([O-])(O)O.[K+] [potassium arsenate]; assay: as above; details: HeLa; arsenate concentration 1 mM
Procedure: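 Cellular thermal proteome profiling in HeLa cells treated with 1 mM arsenate for 1 h (DMSO pretreatment), heated to ten temperatures (37-66.3 °C). Soluble protein was quantified by TMT mass spectrometry relative to DMSO controls; the thermal stability score was transformed to a z-score; mean of n = 3 experiments.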

[1] = arsenate co-treatment: 1 mM arsenate 1 h
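Note: each temperature applied for 3 min, abundance score taken as mean log2 fold change at the two lowest temperatures, z-score obtained by mean subtraction and division by SD.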

UniProt O43395, sequence (O43395 whole entry): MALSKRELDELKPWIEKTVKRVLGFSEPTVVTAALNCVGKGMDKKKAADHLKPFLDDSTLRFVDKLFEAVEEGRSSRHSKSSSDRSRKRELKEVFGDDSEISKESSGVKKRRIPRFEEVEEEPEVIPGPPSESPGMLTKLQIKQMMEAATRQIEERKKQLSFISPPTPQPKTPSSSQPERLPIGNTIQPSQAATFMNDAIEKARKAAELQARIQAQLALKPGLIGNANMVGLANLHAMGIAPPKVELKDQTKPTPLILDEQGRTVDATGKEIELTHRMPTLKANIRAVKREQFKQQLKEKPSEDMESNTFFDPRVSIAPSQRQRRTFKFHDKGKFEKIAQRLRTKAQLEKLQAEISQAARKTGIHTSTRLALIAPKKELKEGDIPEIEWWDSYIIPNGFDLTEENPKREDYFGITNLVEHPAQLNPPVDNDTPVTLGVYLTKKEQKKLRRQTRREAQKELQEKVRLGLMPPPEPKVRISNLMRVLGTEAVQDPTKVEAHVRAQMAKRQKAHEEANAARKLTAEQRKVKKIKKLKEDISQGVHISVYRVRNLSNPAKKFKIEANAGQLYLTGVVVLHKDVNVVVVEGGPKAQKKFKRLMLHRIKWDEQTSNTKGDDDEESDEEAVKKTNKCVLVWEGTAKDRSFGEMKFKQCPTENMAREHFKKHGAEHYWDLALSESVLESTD
UniProt P08473, sequence (P08473 whole entry): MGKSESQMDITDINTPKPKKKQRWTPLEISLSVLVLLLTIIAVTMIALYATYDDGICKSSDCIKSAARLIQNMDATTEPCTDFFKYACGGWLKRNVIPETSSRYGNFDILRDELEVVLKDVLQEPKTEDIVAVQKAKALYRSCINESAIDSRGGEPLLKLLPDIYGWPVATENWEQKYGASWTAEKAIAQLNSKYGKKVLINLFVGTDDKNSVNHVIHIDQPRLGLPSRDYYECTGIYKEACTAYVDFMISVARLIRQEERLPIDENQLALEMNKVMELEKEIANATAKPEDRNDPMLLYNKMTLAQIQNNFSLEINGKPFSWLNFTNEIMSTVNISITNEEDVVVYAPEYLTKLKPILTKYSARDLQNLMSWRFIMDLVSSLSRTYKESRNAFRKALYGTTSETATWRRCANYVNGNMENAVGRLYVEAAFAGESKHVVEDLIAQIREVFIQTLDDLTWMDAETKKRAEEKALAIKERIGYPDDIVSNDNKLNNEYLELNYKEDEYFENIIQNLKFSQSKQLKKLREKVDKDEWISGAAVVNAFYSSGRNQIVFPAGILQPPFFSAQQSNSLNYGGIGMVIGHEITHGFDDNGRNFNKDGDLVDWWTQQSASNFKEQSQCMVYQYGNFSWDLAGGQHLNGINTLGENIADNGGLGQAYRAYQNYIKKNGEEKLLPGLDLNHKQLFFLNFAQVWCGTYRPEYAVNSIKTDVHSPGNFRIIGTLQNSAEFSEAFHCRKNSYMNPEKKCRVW
UniProt Q8NB49, sequence (Q8NB49 whole entry): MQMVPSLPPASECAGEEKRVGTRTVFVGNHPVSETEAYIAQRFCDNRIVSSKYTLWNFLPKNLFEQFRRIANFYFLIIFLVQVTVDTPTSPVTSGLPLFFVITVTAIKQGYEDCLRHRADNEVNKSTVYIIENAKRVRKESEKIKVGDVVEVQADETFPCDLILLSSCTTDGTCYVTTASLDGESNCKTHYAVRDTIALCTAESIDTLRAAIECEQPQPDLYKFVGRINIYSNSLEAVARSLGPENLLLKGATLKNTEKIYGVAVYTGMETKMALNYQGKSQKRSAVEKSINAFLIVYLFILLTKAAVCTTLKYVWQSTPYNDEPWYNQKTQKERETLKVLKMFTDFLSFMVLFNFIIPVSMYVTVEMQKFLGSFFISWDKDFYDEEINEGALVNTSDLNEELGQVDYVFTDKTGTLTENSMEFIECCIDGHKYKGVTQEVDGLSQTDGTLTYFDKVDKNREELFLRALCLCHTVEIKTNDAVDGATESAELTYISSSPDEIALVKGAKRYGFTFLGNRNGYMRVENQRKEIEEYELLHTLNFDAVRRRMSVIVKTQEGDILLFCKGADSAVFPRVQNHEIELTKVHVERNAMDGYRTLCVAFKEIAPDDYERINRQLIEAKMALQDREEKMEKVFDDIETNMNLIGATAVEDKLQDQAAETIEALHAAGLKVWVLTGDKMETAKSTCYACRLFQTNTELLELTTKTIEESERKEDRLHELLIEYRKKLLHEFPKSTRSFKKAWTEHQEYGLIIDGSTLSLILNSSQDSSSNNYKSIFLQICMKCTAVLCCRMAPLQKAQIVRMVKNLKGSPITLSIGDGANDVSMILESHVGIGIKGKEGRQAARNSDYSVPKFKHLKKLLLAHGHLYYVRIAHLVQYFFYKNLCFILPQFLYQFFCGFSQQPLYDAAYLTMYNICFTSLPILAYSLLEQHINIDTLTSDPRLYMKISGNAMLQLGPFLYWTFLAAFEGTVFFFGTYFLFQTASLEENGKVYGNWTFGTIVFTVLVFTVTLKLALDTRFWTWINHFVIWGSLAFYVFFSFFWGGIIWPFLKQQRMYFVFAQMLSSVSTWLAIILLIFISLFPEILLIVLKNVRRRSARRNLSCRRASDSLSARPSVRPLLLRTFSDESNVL
UniProt Q8IVH2, sequence (Q8IVH2 whole entry): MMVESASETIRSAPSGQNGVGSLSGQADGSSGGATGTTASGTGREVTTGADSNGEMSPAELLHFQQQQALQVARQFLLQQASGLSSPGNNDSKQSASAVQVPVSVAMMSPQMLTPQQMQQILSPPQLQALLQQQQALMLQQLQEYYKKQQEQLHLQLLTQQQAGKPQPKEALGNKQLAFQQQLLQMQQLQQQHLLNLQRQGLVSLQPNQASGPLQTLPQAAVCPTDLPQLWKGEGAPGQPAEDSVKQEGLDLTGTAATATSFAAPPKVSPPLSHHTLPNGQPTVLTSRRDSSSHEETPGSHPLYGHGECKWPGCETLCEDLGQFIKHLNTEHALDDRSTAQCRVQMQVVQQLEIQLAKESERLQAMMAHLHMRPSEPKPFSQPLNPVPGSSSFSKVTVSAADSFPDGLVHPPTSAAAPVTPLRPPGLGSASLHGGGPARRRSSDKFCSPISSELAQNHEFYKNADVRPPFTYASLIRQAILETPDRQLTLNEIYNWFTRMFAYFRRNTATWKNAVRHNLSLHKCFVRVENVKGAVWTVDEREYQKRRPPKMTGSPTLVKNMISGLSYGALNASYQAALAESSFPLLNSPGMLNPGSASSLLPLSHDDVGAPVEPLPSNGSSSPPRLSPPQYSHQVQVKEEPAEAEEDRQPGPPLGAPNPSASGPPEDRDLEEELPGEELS
UniProt Q53FA7, sequence (Q53FA7 whole entry): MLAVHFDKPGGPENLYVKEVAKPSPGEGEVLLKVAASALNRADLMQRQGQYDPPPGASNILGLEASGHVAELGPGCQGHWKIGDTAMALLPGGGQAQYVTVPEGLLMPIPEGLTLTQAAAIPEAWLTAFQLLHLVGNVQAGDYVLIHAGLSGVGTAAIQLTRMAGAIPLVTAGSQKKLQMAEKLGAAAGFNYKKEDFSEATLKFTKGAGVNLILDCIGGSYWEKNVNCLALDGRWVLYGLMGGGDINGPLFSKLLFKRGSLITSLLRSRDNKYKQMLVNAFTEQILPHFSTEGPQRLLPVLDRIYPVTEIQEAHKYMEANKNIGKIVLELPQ
UniProt Q8TB36, sequence (Q8TB36 whole entry): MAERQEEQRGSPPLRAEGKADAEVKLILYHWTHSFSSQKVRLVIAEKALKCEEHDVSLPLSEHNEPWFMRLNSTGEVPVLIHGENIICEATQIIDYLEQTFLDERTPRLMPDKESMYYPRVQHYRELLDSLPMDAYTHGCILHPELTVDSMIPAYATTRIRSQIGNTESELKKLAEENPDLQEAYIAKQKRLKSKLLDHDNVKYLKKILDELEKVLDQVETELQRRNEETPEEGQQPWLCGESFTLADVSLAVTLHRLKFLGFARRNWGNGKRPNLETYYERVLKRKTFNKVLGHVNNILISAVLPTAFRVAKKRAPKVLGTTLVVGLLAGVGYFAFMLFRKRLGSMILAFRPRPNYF
UniProt P04062, sequence (P04062 whole entry): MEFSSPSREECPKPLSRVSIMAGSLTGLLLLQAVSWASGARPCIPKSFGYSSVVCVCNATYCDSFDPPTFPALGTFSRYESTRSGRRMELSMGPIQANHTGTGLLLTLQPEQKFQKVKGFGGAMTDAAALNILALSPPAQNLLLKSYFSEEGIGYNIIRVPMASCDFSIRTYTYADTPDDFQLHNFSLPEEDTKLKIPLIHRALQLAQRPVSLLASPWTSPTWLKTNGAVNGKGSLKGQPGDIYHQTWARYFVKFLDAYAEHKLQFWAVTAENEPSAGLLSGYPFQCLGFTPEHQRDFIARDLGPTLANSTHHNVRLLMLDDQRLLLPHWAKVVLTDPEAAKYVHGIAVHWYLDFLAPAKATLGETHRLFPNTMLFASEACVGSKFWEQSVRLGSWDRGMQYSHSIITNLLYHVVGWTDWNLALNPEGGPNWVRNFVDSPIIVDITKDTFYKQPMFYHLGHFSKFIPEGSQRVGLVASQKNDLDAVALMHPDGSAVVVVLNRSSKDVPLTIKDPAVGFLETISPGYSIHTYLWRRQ
UniProt O75787, sequence (O75787 whole entry): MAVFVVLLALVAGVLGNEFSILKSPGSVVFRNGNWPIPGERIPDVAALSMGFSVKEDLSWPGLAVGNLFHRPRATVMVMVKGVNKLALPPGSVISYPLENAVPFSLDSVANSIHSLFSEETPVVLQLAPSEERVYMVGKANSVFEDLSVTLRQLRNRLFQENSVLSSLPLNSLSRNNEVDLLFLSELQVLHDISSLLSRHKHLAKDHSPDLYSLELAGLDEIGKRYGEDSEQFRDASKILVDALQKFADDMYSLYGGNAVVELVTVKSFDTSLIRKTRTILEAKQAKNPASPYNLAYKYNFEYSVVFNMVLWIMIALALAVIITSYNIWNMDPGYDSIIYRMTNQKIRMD
UniProt Q06141, sequence (Q06141 whole entry): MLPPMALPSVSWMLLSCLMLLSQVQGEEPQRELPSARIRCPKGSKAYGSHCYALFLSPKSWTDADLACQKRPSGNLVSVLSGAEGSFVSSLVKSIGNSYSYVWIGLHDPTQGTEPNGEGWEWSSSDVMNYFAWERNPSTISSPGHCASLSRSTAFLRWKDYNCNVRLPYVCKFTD

Target	thermal stability z-score (lipoamide; [1])	thermal stability z-score (lipoamide; arsenate co-treatment: none)	thermal stability z-score (potassium arsenate)
DNAJC25 (UniProt Q9H1X3)	-1.46	-0.0502	0.282
MME (UniProt P08473)	-0.46	-1.37	0.585
ATP6V1H (UniProt Q9UI12)	0.0391	-0.146	-0.0897
EPRS (UniProt P07814)	-0.648	-0.436	0.432
ARRB2 (UniProt P32121)	-0.153	-1.1	0.28
MED27 (UniProt Q6P2C8)	-0.0367	0.069	0.0267
TP53I3 (UniProt Q53FA7)	0.135	-0.155	-0.359
NCOA7 (UniProt Q8NI08)	-0.676	-0.721	0.0655
SELENBP1 (UniProt Q13228)	0.567	0.164	0.784
GABARAPL2 (UniProt P60520)	0.14	-0.266	0.209
CLP1 (UniProt Q92989)	-0.189	-0.158	-0.0689
TELO2 (UniProt Q9Y4R8)	-0.413	-0.306	0.208
PAP1 (UniProt Q06141)	-0.00124	-0.19	-0.156
C9ORF114 (UniProt Q5T280)	0.288	0.265	-0.288
GDAP1 (UniProt Q8TB36)	-0.141	-0.313	-0.354
CBX3 (UniProt Q13185)	0.366	0.43	1.76
LIG3 (UniProt P49916)	-0.0256	0.0387	-1.05
GGCX (UniProt P38435)	-0.482	-0.632	-0.0562
MED12 (UniProt Q93074)	-0.255	-0.248	0.0377
TCF25 (UniProt Q9BQ70)	-0.802	-0.429	-0.542
NFYC (UniProt Q13952)	0.024	0.385	-0.0961
TOP3B (UniProt O95985)	0.2	-0.391	-0.73
FOXP4 (UniProt Q8IVH2)	-0.605	-0.281	0.363
PRPF3 (UniProt O43395)	2.57	2.44	-0.0589
LRP1 (UniProt Q07954)	-1.1	-1.01	-0.0899
TBCK (UniProt Q8TEA7)	0.135	0.0192	-0.192
SYNGR2 (UniProt O43760)	0.329	0.548	-0.0246
GPD1L (UniProt Q8N335)	0.106	-0.108	-0.935

Target	thermal stability z-score (lipoamide; [1])	thermal stability z-score (lipoamide; arsenate co-treatment: none)	thermal stability z-score (potassium arsenate)
STAT2 (UniProt P52630)	-0.0423	0.0157	0.171
TARS2 (UniProt Q9BW92)	0.183	0.625	0.922
WDR12 (UniProt Q9GZL7)	0.771	0.222	0.0663
ATP11C (UniProt Q8NB49)	-0.348	0.254	-1.13
UROD (UniProt P06132)	0.0739	0.0184	-0.0518
ZFYVE9 (UniProt O95405)	-0.0978	-0.0701	-0.021
BCLAF1 (UniProt Q9NYF8)	1.93	0.229	-1.11
FHL3 (UniProt Q13643)	0.648	-0.254	-3.01
FCHO2 (UniProt Q0JRZ9)	-0.472	-0.218	0.405
GPR89A|GPR89B	-0.28	-0.026	-0.0938
FKBP5 (UniProt Q13451)	-0.637	-0.429	-0.667
MED8 (UniProt Q96G25)	0.954	0.843	0.0962
MDH2 (UniProt P40926)	0.922	0.615	-0.963
PDE3A (UniProt Q14432)	0.363	0.131	-0.555
RWDD2B (UniProt P57060)	0.0612	-0.0257	-0.0179
RTKN (UniProt Q9BST9)	-0.183	-0.084	-0.395
SNX17 (UniProt Q15036)	-0.581	0.118	-0.423
GBA (UniProt P04062)	-0.361	-0.352	0.33
MAN1B1 (UniProt Q9UKM7)	-0.361	-0.286	0.103
LANCL1 (UniProt O43813)	0.232	0.164	0.0783
DDA1 (UniProt Q9BW61)	0.456	-0.211	0.665
VIMP (UniProt Q9BQE4)	0.458	0.457	-0.948
EZH2 (UniProt Q15910)	-0.0218	-0.132	-0.158
RNPS1 (UniProt Q15287)	1.23	0.438	0.528
PBXIP1 (UniProt Q96AQ6)	-3.02	-2.69	-0.357
ATP6AP2 (UniProt O75787)	-2.63	-2.3	-0.366
MED25 (UniProt Q71SY5)	-0.264	-0.252	0.0488

Reference: the supplement of paper PMC12463676, “Small-molecule dissolution of stress granules by redox modulation benefits ALS models” (Nature Chemical Biology, 2025)
